Experimental data as given in ChEMBL document CHEMBL1821675, “The selective P-TEFb inhibitor CAN508 targets angiogenesis” (Eur J Med Chem, 2011).
Activity calls are given as the source filed them. The rule behind the calls is not given here.

Legend:
[1] = biological target: Tyrosine-protein kinase Lck (Homo sapiens) (UniProt P06239); experiment: Inhibition of Lck assessed as residual activity at 10 uM by radioactivity assay in presence of 50 uM ATP
[2] = biological target: 3-phosphoinositide-dependent protein kinase 1 (Homo sapiens) (UniProt O15530); experiment: Inhibition of PDK1 assessed as residual activity at 10 uM by radioactivity assay in presence of 20 uM ATP
MCF7 = experiment: Cytotoxicity against human MCF7 cells; format: functional
[3] = biological target: Calcium/calmodulin-dependent protein kinase kinase 2 (Homo sapiens) (UniProt Q96RR4); experiment: Inhibition of CAMKKbeta assessed as residual activity at 10 uM by radioactivity assay in presence of 20 uM ATP
Calcium/calmodulin-dependent protein kinase kinase 2 (Homo sapiens), sequence (Q96RR4 2-588 limits assumed): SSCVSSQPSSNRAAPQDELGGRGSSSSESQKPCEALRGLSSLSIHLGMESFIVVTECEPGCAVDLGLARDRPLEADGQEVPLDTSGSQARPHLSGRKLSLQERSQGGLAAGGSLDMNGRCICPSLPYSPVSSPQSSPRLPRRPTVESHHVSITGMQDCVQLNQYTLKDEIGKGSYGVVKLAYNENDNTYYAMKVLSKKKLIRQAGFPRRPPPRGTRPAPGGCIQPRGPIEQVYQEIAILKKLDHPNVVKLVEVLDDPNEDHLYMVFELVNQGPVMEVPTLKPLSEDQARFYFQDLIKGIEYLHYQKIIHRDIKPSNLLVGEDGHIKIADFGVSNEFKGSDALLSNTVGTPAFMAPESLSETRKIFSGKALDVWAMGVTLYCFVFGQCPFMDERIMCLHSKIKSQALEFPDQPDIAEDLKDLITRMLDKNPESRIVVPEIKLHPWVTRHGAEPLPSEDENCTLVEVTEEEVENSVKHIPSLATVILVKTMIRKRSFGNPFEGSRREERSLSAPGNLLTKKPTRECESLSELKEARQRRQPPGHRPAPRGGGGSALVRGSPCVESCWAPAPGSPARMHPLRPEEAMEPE

SN12C = experiment: Cytotoxicity against human SN12C cells; format: functional
[4] = biological target: MAP kinase-interacting serine/threonine-protein kinase 1 (Homo sapiens) (UniProt Q9BUB5); experiment: Inhibition of MNK1 assessed as residual activity at 10 uM by radioactivity assay in presence of 50 uM ATP
MAP kinase-interacting serine/threonine-protein kinase 1 (Homo sapiens), sequence (Q9BUB5 whole entry, looked up): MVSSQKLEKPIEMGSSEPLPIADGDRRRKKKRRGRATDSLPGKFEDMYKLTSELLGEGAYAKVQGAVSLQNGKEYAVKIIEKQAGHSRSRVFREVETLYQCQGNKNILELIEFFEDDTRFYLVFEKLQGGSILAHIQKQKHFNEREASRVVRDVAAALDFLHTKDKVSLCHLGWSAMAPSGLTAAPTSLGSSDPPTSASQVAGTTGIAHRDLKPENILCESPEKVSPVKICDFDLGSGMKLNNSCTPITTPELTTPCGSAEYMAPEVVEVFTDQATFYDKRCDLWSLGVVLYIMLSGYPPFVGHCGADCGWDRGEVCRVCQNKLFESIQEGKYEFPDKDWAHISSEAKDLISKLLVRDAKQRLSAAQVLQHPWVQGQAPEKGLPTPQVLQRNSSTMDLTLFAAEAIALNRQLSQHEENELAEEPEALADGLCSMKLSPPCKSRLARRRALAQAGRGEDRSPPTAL

[5] = biological target: Serine/threonine-protein kinase STK11 (Homo sapiens) (UniProt Q15831); experiment: Inhibition of LKB1 assessed as residual activity at 10 uM by radioactivity assay in presence of 20 uM ATP
[6] = biological target: Ribosomal protein S6 kinase alpha-5 (Homo sapiens) (UniProt O75582); experiment: Inhibition of MSK1 assessed as residual activity at 10 uM by radioactivity assay in presence of 20 uM ATP
Ribosomal protein S6 kinase alpha-5 (Homo sapiens), sequence (O75582 whole entry, looked up): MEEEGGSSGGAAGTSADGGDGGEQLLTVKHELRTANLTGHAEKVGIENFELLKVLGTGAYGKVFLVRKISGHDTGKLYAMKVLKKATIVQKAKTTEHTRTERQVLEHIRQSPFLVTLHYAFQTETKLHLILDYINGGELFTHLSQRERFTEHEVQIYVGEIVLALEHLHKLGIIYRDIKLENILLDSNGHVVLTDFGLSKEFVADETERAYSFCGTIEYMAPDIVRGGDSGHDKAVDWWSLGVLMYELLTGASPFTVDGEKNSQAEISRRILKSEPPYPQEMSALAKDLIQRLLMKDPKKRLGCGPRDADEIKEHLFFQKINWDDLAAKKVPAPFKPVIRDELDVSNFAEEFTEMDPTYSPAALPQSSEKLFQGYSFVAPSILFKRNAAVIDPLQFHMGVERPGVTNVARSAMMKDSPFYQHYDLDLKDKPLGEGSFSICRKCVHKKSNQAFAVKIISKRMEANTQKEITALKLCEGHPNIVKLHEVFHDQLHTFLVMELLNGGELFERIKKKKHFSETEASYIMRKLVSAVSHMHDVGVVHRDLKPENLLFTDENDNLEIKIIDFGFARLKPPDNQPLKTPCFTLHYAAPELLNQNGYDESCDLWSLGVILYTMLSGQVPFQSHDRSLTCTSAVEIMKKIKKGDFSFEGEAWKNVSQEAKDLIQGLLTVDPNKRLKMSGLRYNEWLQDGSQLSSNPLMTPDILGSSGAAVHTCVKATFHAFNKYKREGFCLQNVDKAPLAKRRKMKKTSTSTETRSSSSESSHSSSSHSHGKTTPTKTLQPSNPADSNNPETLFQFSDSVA

[7] = biological target: Ribosomal protein S6 kinase alpha-1 (Homo sapiens) (UniProt Q15418); experiment: Inhibition of RSK1 assessed as residual activity at 10 uM by radioactivity assay in presence of 50 uM ATP
Ribosomal protein S6 kinase alpha-1 (Homo sapiens), sequence (Q15418 whole entry): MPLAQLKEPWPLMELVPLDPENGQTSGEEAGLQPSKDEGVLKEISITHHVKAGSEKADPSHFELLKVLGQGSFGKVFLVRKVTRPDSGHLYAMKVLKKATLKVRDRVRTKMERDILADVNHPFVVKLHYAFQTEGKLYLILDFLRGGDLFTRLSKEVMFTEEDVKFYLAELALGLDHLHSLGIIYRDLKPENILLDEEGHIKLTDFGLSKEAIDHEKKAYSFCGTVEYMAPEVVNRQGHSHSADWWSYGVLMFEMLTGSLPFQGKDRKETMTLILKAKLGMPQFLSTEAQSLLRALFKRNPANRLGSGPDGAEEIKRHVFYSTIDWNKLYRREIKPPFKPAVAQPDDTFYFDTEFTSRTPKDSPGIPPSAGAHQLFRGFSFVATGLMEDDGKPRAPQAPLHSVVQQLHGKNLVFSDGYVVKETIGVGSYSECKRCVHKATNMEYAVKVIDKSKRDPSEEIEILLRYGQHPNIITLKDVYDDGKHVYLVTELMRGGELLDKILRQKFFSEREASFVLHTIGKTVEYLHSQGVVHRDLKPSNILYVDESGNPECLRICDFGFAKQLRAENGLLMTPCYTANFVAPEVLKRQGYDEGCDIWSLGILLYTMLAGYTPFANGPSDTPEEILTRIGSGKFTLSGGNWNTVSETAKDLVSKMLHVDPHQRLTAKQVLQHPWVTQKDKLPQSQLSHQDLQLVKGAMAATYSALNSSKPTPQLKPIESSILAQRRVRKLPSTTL

[8] = biological target: Serine/threonine-protein kinase pim-2 (Homo sapiens) (UniProt Q9P1W9); experiment: Inhibition of PIM2 assessed as residual activity at 10 uM by radioactivity assay in presence of 5 uM ATP
[9] = biological target: Eukaryotic elongation factor 2 kinase (Homo sapiens) (UniProt O00418); experiment: Inhibition of EF2K assessed as residual activity at 10 uM by radioactivity assay in presence of 5 uM ATP
Eukaryotic elongation factor 2 kinase (Homo sapiens), sequence (O00418 whole entry): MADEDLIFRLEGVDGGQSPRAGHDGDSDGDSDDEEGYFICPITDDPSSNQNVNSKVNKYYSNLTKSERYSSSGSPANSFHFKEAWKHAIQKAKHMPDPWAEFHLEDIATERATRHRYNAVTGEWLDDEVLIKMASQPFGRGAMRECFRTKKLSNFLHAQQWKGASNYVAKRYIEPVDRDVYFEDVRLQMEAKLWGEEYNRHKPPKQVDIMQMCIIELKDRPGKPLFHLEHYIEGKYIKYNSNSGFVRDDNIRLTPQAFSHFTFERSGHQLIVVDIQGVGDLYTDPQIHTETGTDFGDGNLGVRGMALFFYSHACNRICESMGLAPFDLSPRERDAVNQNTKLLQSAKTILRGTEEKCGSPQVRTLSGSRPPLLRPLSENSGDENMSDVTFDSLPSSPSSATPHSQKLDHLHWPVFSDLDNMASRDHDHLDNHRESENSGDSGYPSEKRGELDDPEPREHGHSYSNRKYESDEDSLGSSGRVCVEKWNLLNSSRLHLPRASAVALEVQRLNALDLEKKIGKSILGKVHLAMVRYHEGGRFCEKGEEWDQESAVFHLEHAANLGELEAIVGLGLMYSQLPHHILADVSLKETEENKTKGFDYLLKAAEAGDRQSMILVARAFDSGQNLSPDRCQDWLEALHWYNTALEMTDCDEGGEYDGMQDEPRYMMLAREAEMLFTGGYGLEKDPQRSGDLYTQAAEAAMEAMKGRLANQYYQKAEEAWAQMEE

[10] = biological target: Tyrosine-protein kinase CSK (Homo sapiens) (UniProt P41240); experiment: Inhibition of CSK assessed as residual activity at 10 uM by radioactivity assay in presence of 20 uM ATP
[11] = biological target: MAP kinase-activated protein kinase 2 (Homo sapiens) (UniProt P49137); experiment: Inhibition of MAPKAP-K2 assessed as residual activity at 10 uM by radioactivity assay in presence of 20 uM ATP
[12] = biological target: Calcium/calmodulin-dependent protein kinase type 1 (Homo sapiens) (UniProt Q14012); experiment: Inhibition of CAMK1 assessed as residual activity at 10 uM by radioactivity assay in presence of 50 uM ATP
Calcium/calmodulin-dependent protein kinase type 1 (Homo sapiens), sequence (Q14012 whole entry, looked up): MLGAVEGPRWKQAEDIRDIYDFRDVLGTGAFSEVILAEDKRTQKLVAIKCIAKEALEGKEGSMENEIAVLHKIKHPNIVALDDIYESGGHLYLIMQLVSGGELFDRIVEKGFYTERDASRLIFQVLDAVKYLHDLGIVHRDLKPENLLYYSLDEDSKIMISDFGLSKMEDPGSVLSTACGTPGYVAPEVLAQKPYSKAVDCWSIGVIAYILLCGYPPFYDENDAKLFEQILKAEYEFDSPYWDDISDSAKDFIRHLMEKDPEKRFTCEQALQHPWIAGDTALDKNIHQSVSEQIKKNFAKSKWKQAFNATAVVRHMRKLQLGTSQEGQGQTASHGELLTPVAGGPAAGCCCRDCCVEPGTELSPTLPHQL

[13] = Inhibition of PKA assessed as residual activity at 10 uM by radioactivity assay in presence of 20 uM ATP
[14] = biological target: Mitogen-activated protein kinase 15 (Homo sapiens) (UniProt Q8TD08); experiment: Inhibition of ERK8 assessed as residual activity at 10 uM by radioactivity assay in presence of 5 uM ATP
[15] = biological target: Ephrin type-B receptor 3 (Homo sapiens) (UniProt P54753); experiment: Inhibition of EPH-B3 assessed as residual activity at 10 uM by radioactivity assay in presence of 20 uM ATP
[16] = biological target: RAC-beta serine/threonine-protein kinase (Homo sapiens) (UniProt P31751); experiment: Inhibition of PKBbeta assessed as residual activity at 10 uM by radioactivity assay in presence of 50 uM ATP
[17] = biological target: Cyclin-dependent kinase 2/cyclin A (Homo sapiens) (UniProt P24941+P20248+P78396); experiment: Inhibition of CDK2/cyclin A assessed as residual activity at 10 uM by radioactivity assay in presence of 20 uM ATP; format: protein-complex assay
NCI/ADR-RES = experiment: Cytotoxicity against human NCI/ADR-RES cells; format: functional
SF-268 = experiment: Cytotoxicity against human SF268 cells; format: functional
[18] = Inhibition of VEGFR assessed as residual activity at 10 uM by radioactivity assay in presence of 20 uM ATP
UACC-257 = experiment: Cytotoxicity against human UACC257 cells; format: functional
HMEC-1 = experiment: Antiangiogenic activity in VEGF-stimulated HMEC1 assessed as reduction in tube nodes after 16 hrs by photographic analysis; format: functional; conditions: Homo sapiens
[19] = biological target: Serine/threonine-protein kinase 26 (Homo sapiens) (UniProt Q9P289); experiment: Inhibition of MST4 assessed as residual activity at 10 uM by radioactivity assay in presence of 20 uM ATP
MDA-MB-435 = experiment: Cytotoxicity against human MDA-MB-435 cells; format: functional
[20] = Antiangiogenic activity in VEGF-stimulated HMEC1 assessed as reduction in total length of tube at 40 uM after 16 hrs by photographic analysis; format: functional, Homo sapiens, HMEC-1; design: scale not given: the % may be the effect or the level left
DU-145 = experiment: Cytotoxicity against human DU145 cells; format: functional
[21] = biological target: Maternal embryonic leucine zipper kinase (Homo sapiens) (UniProt Q14680); experiment: Inhibition of MELK assessed as residual activity at 10 uM by radioactivity assay in presence of 50 uM ATP
RPMI-8226 = experiment: Cytotoxicity against human RPMI8226 cells; format: functional
SR = experiment: Cytotoxicity against human SR cells; format: functional
[22] = biological target: Mitogen-activated protein kinase 10 (Homo sapiens) (UniProt P53779); experiment: Inhibition of JNK3alpha1 assessed as residual activity at 10 uM by radioactivity assay in presence of 20 uM ATP
Mitogen-activated protein kinase 10 (Homo sapiens), sequence (P53779 whole entry): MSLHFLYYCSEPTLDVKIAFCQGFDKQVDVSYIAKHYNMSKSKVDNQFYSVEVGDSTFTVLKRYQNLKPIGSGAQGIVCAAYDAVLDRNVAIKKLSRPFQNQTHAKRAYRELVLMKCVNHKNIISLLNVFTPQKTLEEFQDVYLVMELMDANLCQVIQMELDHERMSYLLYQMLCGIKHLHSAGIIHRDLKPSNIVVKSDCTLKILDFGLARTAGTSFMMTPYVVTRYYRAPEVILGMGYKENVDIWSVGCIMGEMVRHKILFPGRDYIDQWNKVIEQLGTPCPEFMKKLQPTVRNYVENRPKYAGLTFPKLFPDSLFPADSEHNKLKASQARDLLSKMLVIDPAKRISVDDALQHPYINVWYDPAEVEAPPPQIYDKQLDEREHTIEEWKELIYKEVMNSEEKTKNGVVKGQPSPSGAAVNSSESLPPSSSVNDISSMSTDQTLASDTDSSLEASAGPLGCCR

[23] = biological target: Serine/threonine-protein kinase TBK1 (Homo sapiens) (UniProt Q9UHD2); experiment: Inhibition of TBK1 assessed as residual activity at 10 uM by radioactivity assay in presence of 50 uM ATP
[24] = biological target: Aurora kinase B (Homo sapiens) (UniProt Q96GD4); experiment: Inhibition of Aurora B assessed as residual activity at 10 uM by radioactivity assay in presence of 20 uM ATP
UACC-62 = experiment: Cytotoxicity against human UACC62 cells; format: functional
[25] = biological target: Mitogen-activated protein kinase 8 (Homo sapiens) (UniProt P45983); experiment: Inhibition of JNK1A1 assessed as residual activity at 10 uM by radioactivity assay in presence of 20 uM ATP
Mitogen-activated protein kinase 8 (Homo sapiens), sequence (P45983 whole entry): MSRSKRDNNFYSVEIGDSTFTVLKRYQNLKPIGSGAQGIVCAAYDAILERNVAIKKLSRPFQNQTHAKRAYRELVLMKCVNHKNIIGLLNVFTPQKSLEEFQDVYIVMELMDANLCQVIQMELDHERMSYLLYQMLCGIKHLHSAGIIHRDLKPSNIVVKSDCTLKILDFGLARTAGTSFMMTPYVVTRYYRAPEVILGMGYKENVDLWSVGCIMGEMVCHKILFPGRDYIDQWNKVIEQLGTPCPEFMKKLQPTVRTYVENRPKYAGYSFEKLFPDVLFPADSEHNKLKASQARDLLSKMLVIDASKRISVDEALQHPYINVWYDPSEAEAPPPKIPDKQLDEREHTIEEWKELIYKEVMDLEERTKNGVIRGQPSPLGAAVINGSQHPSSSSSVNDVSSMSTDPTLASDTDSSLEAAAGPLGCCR

TK-10 = experiment: Cytotoxicity against human TK10 cells; format: functional
[26] = biological target: Cyclin-dependent kinase 7 (Homo sapiens) (UniProt P50613); experiment: Inhibition of CDK7-catalyzed RNA polymerase 2 phosphorylation at Ser5 in human MCF7 cells at 5 to 40 uM after 2 hrs by immunoblotting; format: cell-based
Cyclin-dependent kinase 7 (Homo sapiens), sequence (P50613 whole entry): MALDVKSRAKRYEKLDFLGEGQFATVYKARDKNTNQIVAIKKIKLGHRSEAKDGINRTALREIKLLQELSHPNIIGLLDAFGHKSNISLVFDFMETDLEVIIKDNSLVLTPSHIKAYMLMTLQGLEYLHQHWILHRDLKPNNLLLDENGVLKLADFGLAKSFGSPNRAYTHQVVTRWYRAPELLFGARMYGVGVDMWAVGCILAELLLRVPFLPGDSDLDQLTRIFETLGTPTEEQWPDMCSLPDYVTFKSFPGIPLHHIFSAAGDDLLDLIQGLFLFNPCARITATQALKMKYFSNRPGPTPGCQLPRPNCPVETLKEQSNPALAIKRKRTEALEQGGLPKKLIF

[27] = biological target: Mitogen-activated protein kinase kinase kinase 11 (Homo sapiens) (UniProt Q16584); experiment: Inhibition of MLK3 assessed as residual activity at 10 uM by radioactivity assay in presence of 20 uM ATP
SK-OV-3 = experiment: Cytotoxicity against human SKOV3 cells; format: functional

SMILES: Nc1n[nH]c(N)c1/N=N/c1ccc(O)cc1
- Activity [1]: 113%
- Activity [2]: 66%
- GI50 (MCF7): 23.5 µM
- Activity [3]: 52%
- GI50 (SN12C): 23.3 µM
- Activity [4]: 37%
- Activity [5]: 37%
- Activity [6]: 88%
- Activity [7]: 93%
- Activity [8]: 69%
- Activity [9]: 106%
- Activity [10]: 105%
- Activity [11]: 26%
- Activity [12]: 81%
- Activity [13]: 63%
- Activity [14]: 17%
- Activity [15]: 45%
- Activity [16]: 56%
- Activity [17]: 27%
- GI50 (NCI/ADR-RES): 22.5 µM
- GI50 (SF-268): 20.6 µM
- Activity [18]: 42%
- GI50 (UACC-257): 24.4 µM
- Activity (HMEC-1): inactive
- Activity [19]: 77%
- GI50 (MDA-MB-435): 17.1 µM
- Activity [20]: 30%
- GI50 (DU-145): 17 µM
- Activity [21]: 46%
- GI50 (RPMI-8226): 14.4 µM
- GI50 (SR): 10.3 µM
- Activity [22]: 108%
- Activity [23]: 55%
- Activity [24]: 46%
- GI50 (UACC-62): 11 µM
- Activity [25]: 87%
- GI50 (TK-10): 25.6 µM
- inhibition [26]: Active
- Activity [27]: 31%
- GI50 (SK-OV-3): 49.2 µM
